Experimental data from ChEMBL document CHEMBL4251746, “Design of Conformationally Constrained Acyl Sulfonamide Isosteres: Identification of N-([1,2,4]Triazolo[4,3- a]pyridin-3-yl)methane-sulfonamides as Potent and Selective hNaV1.7 Inhibitors for the Treatment of Pain” (J Med Chem, 2018).
In brackets after ≈: the same amount, converted by molar mass. Values belong to the compound of their own block, whether it stands above or below them.

Legend:
[1] = physchem; settings: 1-octanol/PBS, pH 7.4
[2] = physchem; settings: PBS, pH 7.4
[3] = in vivo; settings: FVB hSCN9a Tg, mouse, plasma, po, 30 mg/kg
[4] = in vivo; settings: brain/plasma
[5] = in vivo; settings: Sprague-Dawley, rat, iv, 1 mg/kg
[6] = in vivo; settings: CF1, mouse, iv, 0.5 mg/kg
[7] = in vitro; settings: dog, MDCK-MDR1
[8] = in vitro; settings: dog, MDCK-MDR1; remark: listed apart in the source
[9] = Dissociation constant, pKa of the compound by UV-metric method; assay type: physicochemical
[10] = in vivo; settings: beagle, dog, iv, 0.5 mg/kg
[11] = in vivo; settings: FVB hSCN9a Tg, mouse, po, 30 mg/kg
[12] = octanol/water, pH 7.4

SMILES: CS(=O)(=O)Nc1nnc2cc(COc3cc(Cl)cc(Cl)c3)c(C3CC3)cn12
logD [1]: 1.9
solubility kinetic at 24 h, 200 µM [2]: 17 µM (≈ 7.26 µg/mL)
concentration at 3 h [3]: 18.8 µM
Kp [4]: < 0.004
Vd [5]: 0.6 L/kg
Vd [6]: 0.2 L/kg
Papp A→B at 10 µM [7]: 4 ×10⁻⁶ cm/s
Papp B→A at 10 µM [8]: 15 ×10⁻⁶ cm/s

logD [1]: 3.5
pKa [9]: 4.7
SMILES: CS(=O)(=O)Nc1noc2cc(OCC34CC5CC(CC(C5)C3)C4)c(Cl)cc12

logD [1]: 1.5
SMILES: CS(=O)(=O)Nc1nnc2cc(COc3ccc(Cl)c(Cl)c3)c(C3CC3)cn12

logD [1]: 3.1
SMILES: O=S(=O)(Nc1nnc2cc(OCC34CC5CC(CC(C5)C3)C4)c(C3CC3)cn12)C(F)F

SMILES: CS(=O)(=O)Nc1nnc2cc(OCC34CC5CC(CC(C5)C3)C4)c(C3CC3)cn12
logD [1]: 3.5
solubility kinetic at 24 h, 200 µM [2]: 32 µM (≈ 13.3 µg/mL)
concentration at 3 h [3]: 46.2 µM
Kp [4]: > 0.17
Vd [5]: 0.6 L/kg
Vd [10]: 0.4 L/kg
Papp A→B at 10 µM [7]: 3.2 ×10⁻⁶ cm/s
Papp B→A at 10 µM [8]: 3.2 ×10⁻⁶ cm/s
Tmax at 3 h [11]: 2 h

logD [1]: 2.2
SMILES: CS(=O)(=O)Nc1nnc2cc(OCC34CC5CC(CC(C5)C3)C4)ccn12

logD [1]: 1.8
SMILES: CS(=O)(=O)Nc1noc2cc(OCc3ccc(Cl)c(Cl)c3)c(Cl)cc12

logD [1]: 2.4
SMILES: CS(=O)(=O)Nc1noc2cc(COc3ccc(Cl)c(Cl)c3)c(C3CC3)cc12

logD [1]: 2.3
SMILES: CS(=O)(=O)Nc1nnc2cc(OCC3C4CC5CC(C4)CC3C5)c(C3CC3)cn12 (configuration not stated)

logD [1]: 2.5
SMILES: CS(=O)(=O)Nc1noc2cc(COc3ccc(Cl)c(Cl)c3)c(Cl)cc12

logD [1]: 2.7
pKa [9]: 5.6
SMILES: CS(=O)(=O)Nc1nnc2cc(OCC34CC5CC(CC(C5)C3)C4)c(Cl)cn12

logD [1]: 2.9
SMILES: CC(C)c1cn2c(NS(C)(=O)=O)nnc2cc1OCC12CC3CC(CC(C3)C1)C2

logD [1]: 4.7
SMILES: O=S(=O)(Nc1nnc2cc(OCC34CC5CC(CC(C5)C3)C4)c(C3CC3)cn12)C1CCC1

logD [1]: 3.9
SMILES: CS(=O)(=O)Nc1nnc2cc(OCC34CC5CC(CC(C5)C3)C4)c(C3CCC3)cn12

logD [1]: 2.8
SMILES: CS(=O)(=O)Nc1nnc2cc(OCC34CC5CC(CC(C5)C3)C4)c(Br)cn12

logD [1]: 3.7
SMILES: CNS(=O)(=O)Nc1nnc2cc(OCCC34CC5CC(CC(C5)C3)C4)c(C3CC3)cn12

pKa [9]: 3.8
logD [12]: 2.4
SMILES: CS(=O)(=O)NC(=O)c1cc(Cl)c(OCC23CC4CC(CC(C4)C2)C3)cc1F

logD [1]: 3.2
SMILES: CNS(=O)(=O)Nc1nnc2cc(OCC34CC5CC(CC(C5)C3)C4)c(C3CC3)cn12

logD [1]: 3.1
SMILES: CCc1cn2c(NS(C)(=O)=O)nnc2cc1OCC12CC3CC(CC(C3)C1)C2
